Activity calls are given as the source filed them. The calls are words filed in the database; no cut-off is given here.

Here are results for 17 compounds from ChEMBL document CHEMBL3112449, “Identification of a selective inhibitor of murine intestinal alkaline phosphatase (ML260) by concurrent ultra-high throughput screening against human and mouse isozymes” (Bioorg Med Chem Lett, 2014).

Experiment [1] has as its target T1, Alkaline phosphatase, tissue-nonspecific isozyme (Homo sapiens, UniProt P05186).
T1 sequence (P05186 whole entry): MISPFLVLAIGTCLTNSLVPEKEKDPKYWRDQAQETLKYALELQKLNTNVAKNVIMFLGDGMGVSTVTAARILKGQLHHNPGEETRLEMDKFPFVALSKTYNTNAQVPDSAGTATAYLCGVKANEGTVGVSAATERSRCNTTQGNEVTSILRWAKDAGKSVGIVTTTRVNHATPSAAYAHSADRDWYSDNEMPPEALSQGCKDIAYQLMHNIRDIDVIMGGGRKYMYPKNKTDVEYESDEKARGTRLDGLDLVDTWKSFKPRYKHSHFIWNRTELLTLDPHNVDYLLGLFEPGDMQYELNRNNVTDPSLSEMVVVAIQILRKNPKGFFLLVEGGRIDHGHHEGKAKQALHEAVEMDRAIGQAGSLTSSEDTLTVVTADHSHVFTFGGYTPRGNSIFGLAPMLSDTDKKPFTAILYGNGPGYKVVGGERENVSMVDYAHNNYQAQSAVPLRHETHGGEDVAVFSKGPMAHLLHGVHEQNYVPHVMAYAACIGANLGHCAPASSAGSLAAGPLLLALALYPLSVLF
The experiment in a line: Inhibition of FLAG-tagged TNAP (unknown origin) expressed in African green monkey COS1 cells after 30 mins by chemiluminescence assay. In kind it is cell-based, COS-1.

The target in experiment [2] is T2, Intestinal-type alkaline phosphatase (Mus musculus, UniProt P24822). The experiment in a line: Inhibition of mouse duodenal-specific FLAG-tagged IAP expressed in African green monkey COS1 cells after 30 mins by chemiluminescence assay. The format is cell-based, COS-1.
The target of experiment [3] is Alkaline phosphatase, placental type (Homo sapiens, UniProt P05187). The experiment in a line: Inhibition of FLAG-tagged PLAP (unknown origin) expressed in African green monkey COS1 cells after 30 mins by chemiluminescence assay. The format is cell-based, COS-1.
For experiment [4], the target named is T3, Intestinal-type alkaline phosphatase (Homo sapiens, UniProt P09923). The experiment in a line: Inhibition of human FLAG-tagged IAP expressed in African green monkey COS1 cells after 30 mins by chemiluminescence assay. The format is cell-based, COS-1.
Experiment [5] can be described thus: Inhibition of mouse gIAP using p-nitrophenyl phosphate as substrate after 30 mins by chemiluminescence assay.
Experiment [6] deals with T2, Intestinal-type alkaline phosphatase. The experiment in a line: Inhibition of mouse duodenal-specific FLAG-tagged IAP expressed in African green monkey COS1 cells using p-nitrophenyl phosphate as substrate after 30 mins by chemiluminescence assay.
The target of experiment [7] is T3, Intestinal-type alkaline phosphatase. The experiment in a line: Inhibition of human FLAG-tagged IAP expressed in African green monkey COS1 cells using p-nitrophenyl phosphate as substrate after 30 mins by chemiluminescence assay. The format is cell-based, COS-1.
Experiment [8] has as its target T4, Alkaline phosphatase, germ cell type (Mus musculus, UniProt P24823).
T4 sequence (P24823 whole entry): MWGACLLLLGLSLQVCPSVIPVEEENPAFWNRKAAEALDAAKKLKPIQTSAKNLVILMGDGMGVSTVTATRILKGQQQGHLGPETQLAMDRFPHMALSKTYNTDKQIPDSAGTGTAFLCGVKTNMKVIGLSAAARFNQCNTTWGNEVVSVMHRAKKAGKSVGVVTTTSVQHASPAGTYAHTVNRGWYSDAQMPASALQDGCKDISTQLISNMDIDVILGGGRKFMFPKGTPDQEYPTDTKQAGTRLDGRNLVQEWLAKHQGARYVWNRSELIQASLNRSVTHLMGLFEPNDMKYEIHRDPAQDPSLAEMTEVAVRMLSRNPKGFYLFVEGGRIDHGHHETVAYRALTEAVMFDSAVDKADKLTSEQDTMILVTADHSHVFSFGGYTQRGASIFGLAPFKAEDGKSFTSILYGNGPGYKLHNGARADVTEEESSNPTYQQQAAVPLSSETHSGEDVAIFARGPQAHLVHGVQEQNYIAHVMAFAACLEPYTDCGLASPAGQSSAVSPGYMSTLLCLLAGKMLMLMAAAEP
The experiment in a line: Inhibition of mouse EAP using p-nitrophenyl phosphate as substrate after 30 mins by chemiluminescence assay.

For experiment [9], the target named is T2, Intestinal-type alkaline phosphatase. The experiment in a line: Competitive inhibition of mouse duodenal-specific FLAG-tagged IAP expressed in African green monkey COS1 cells using p-nitrophenyl phosphate as substrate by double reciprocal plot analysis. The conditions noted are these: read-out: Ki(app). In kind it is cell-based, COS-1.
Experiment [10] concerns the target Intestinal-type alkaline phosphatase (Mus musculus) (UniProt P24822). The conditions noted are these: CHO-K1, 10 uM.
Description: Inhibition of mouse duodenal-specific IAP expressed in CHOK1 cells at 10 uM by ELF97 staining-based phase contrast microscopic analysis

Chain of Alkaline phosphatase, placental type (P05187 whole entry): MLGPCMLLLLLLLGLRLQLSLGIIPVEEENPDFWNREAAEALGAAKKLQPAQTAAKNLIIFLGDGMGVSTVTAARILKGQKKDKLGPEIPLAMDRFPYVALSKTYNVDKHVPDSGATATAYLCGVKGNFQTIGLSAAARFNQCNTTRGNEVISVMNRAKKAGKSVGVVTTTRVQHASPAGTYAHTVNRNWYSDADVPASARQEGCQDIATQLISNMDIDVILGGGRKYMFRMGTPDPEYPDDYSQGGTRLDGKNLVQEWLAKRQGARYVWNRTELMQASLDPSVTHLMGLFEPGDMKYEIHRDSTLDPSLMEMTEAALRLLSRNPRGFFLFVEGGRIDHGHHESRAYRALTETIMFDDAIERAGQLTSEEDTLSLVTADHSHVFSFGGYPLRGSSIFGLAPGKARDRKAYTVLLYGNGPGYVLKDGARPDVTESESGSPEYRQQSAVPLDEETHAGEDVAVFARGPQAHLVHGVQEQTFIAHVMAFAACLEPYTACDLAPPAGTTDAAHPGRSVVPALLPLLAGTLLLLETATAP
T2 sequence (P24822 whole entry): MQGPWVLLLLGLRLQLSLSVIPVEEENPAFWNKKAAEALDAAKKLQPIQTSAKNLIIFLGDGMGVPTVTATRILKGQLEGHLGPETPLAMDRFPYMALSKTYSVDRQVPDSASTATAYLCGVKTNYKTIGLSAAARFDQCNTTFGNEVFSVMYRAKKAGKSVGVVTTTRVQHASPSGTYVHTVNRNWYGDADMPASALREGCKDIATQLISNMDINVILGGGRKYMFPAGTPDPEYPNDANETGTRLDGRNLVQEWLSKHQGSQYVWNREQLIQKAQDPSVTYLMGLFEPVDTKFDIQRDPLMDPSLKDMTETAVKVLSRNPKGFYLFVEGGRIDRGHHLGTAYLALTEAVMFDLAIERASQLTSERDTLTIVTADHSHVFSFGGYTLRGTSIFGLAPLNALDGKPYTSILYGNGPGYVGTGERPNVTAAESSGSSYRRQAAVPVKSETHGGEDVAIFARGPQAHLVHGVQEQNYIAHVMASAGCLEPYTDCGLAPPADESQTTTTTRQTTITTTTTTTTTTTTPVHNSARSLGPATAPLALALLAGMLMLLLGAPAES
T3 sequence (P09923 whole entry): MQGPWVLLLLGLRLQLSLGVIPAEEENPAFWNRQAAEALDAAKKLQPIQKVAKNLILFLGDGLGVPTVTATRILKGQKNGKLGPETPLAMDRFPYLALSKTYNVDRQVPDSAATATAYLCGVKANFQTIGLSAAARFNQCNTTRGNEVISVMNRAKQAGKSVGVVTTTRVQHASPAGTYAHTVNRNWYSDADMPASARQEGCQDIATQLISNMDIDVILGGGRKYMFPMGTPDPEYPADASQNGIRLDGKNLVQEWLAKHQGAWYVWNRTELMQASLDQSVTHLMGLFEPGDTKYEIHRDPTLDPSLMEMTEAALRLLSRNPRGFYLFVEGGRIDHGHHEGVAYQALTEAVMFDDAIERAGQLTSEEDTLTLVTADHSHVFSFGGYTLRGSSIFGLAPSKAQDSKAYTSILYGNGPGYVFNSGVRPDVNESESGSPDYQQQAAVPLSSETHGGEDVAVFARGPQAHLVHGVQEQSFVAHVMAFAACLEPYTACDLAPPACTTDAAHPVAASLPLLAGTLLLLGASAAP
Chain of Intestinal-type alkaline phosphatase (Mus musculus) (P24822 whole entry): as the sequence (P24822 whole entry) above

Regarding `O=C(CCCNS(=O)(=O)c1ccc2[nH]c(=O)oc2c1)NCc1ccc2c(c1)OCO2`, the IC50 was more than 100 µM in experiment [1], 45 µM in experiment [2] and more than 100 µM in experiment [3].

Regarding `N#Cc1cccc(NC(=O)CCNS(=O)(=O)c2ccc3nc(O)oc3c2)c1`, the IC50 in experiment [1] is more than 100 µM; in experiment [4] it was more than 100 µM; in experiment [2], 1.82 µM; in experiment [3] it was more than 100 µM.

As for `COc1ccc(NC(=O)NS(=O)(=O)c2ccc3[nH]c(=O)oc3c2)cc1OC`, the IC50 in [1], in experiment [2] and in [3] was more than 100 µM each time.

For the compound `N#Cc1cccc(NC(=O)NS(=O)(=O)c2ccc3[nH]c(=O)oc3c2)c1`, the concentration for half-maximal inhibition (IC50) in experiment [1], in experiment [2] and in [3] was more than 100 µM throughout.

Consider `O=C(CCNS(=O)(=O)c1ccc2[nH]c(=O)oc2c1)NCCCc1ccc2c(c1)OCO2`, for which the IC50 in experiment [1] is more than 100 µM; in experiment [2], 44 µM; in experiment [3], more than 100 µM.

With `O=C(CNS(=O)(=O)c1ccc2[nH]c(=O)oc2c1)NCc1ccc2c(c1)OCO2`, the IC50 in experiment [1], in experiment [2] and in [3] was more than 100 µM each time.

On to `O=C(CCNS(=O)(=O)c1ccc2[nH]c(=O)oc2c1)Nc1ccc2c(c1)OCO2`, for which the IC50 in [1] was more than 100 µM; in experiment [2], 12 µM; in experiment [3] it was more than 100 µM.

For `O=C(NCCc1ccc2c(c1)OCO2)NS(=O)(=O)c1ccc2[nH]c(=O)oc2c1`, the IC50 in experiment [1], in experiment [2] and in experiment [3] was more than 100 µM each time.

Turning to `O=C(CCNS(=O)(=O)c1ccc2[nH]c(=O)oc2c1)NCc1ccc2c(c1)OCO2`, the IC50 in experiment [1] is more than 100 µM; in experiment [2] it was 2.6 µM; in experiment [3] it was more than 100 µM.

With `Cc1ccc(C)c(NC(=O)NS(=O)(=O)c2ccc3[nH]c(=O)oc3c2)c1`, the IC50 in experiment [1], in [2] and in experiment [3] was more than 100 µM in each case.

In the case of `O=C(CCNS(=O)(=O)c1ccc2[nH]c(=O)oc2c1)NCCc1ccc2c(c1)OCO2`, the results for the 50% inhibitory concentration (IC50) in experiment [1], in [2] and in experiment [3] were more than 100 µM, 19 µM and more than 100 µM, respectively.

`N#Cc1ccc(NC(=O)NS(=O)(=O)c2ccc3[nH]c(=O)oc3c2)cc1`: the IC50 in experiment [1], in experiment [2] and in experiment [3] was more than 100 µM throughout.

Regarding `Cc1ccc(C)c(NC(=O)CNS(=O)(=O)c2ccc3[nH]c(=O)oc3c2)c1`, the IC50 in [5] turned out to be 21 µM; in experiment [6], 3.8 µM; in experiment [1], 35 µM; in [7], 27.6 µM; in experiment [8] it was 21.1 µM; in experiment [2], 0.54 µM. In [3], this compound registered an IC50 of more than 100 µM. In addition, the Ki in experiment [9] was 3.2 µM. For the same compound, the inhibition result in experiment [10] is “Active”.

Regarding `O=C(CNS(=O)(=O)c1ccc2[nH]c(=O)oc2c1)NCCc1ccc2c(c1)OCO2`, the IC50 in experiment [1], in [2] and in experiment [3] was more than 100 µM in each case.

Take `COc1cccc(CNC(=O)NS(=O)(=O)c2ccc3[nH]c(=O)oc3c2)c1`: the IC50 in experiment [1] is more than 100 µM; in experiment [2], 40 µM; in [3] it was more than 100 µM.

For `O=C(Nc1ccc2c(c1)OCO2)NS(=O)(=O)c1ccc2[nH]c(=O)oc2c1`, the IC50 in experiment [1], in [2] and in experiment [3] was more than 100 µM throughout.

In the case of `COc1ccc(CNC(=O)NS(=O)(=O)c2ccc3[nH]c(=O)oc3c2)c(OC)c1`, the IC50 was more than 100 µM in experiment [1], 89 µM in [2] and more than 100 µM in experiment [3].
